What was measured:
[1] = biological target: T1, full-length NS3/NS4A-2 (HCV NS3 protease) (Hepatitis C virus genotype 1b, UniProt Q9WMX2); assay: NS3 Inhibition Assay (NS3-NS4 protease assay, RETS1 substrate); type: biochemical; settings: NS3/NS4A-2 protease
T1 construct: Recombinant E. coli or Baculovirus full-length NS3; host or cells: E. coli or baculovirus (BV) expression
Procedure: NS3 Complex Formation with NS4A-2.
Recombinant E. coli or Baculovirus full-length NS3 was diluted to 3.33 μM with assay buffer and transferred material to an eppendorf tube and placed in a water bath in a 4° C. refrigerator. The appropriate amount of NS4A-2 diluted to […] in assay buffer was added to equal the volume of NS3 above (conversion factor—3.8 mg/272 μL assay buffer). The material was transferred to an eppendorf tube and placed in water bath in a 4° C. refrigerator.
After equilibration to 4° C., equal volumes of NS3 and NS4A-2 solutions were combined in an eppendorf tube, mix gently with a manual pipettor, and incubate mixture for 15 minutes in the 4° C. water bath. Final concentrations in the mixture are 1.67 μM NS3, 4.15 mM NS4A-2 (2485-fold molar excess NS4A-2).
After 15 minutes at 4° C., the NS3/NS4A-2 eppendorf tube was removed and place it in a room temperature water bath for 10 minutes. NS3/NS4A-2 was aliquoted at appropriate volumes and store at −80° C. (E. coli NS3 run at 2 nM in assay, aliquot at 25 μL. BV NS3 run at 3 nM in assay, aliquot at 30 μL).
Step a. Sample compounds were dissolved to 10 mM in DMSO then diluted to 2.5 mM (1:4) in DMSO. Typically, compounds were added to an assay plate at 2.5 mM concentration, yielding upon dilution a starting concentration of 50 microM in the assay inhibition curve. Compounds were serial diluted in assay buffer to provide test solutions at lower concentrations.
Step b. The E. coli. NS3/NS4A-2 was diluted to 4 nM NS3 (1:417.5 of 1.67 μM stock−18 μL1.67 μM stock+7497 μL assay buffer). The BV NS3/NS4A-2 was diluted to 6 nM NS3 (1:278.3 of 1.67 μM stock−24 μL1.67 μM stock+6655 μL assay buffer).
Step c. Using the manual multichannel pipettor, and being careful not to introduce bubbles into the plate, 50 μL assay buffer were added to wells A01-H01 of a black Costar 96-well polypropylene storage plate.
Step d. Using the manual multichannel pipettor, and being careful not to introduce bubbles into the plate, 50 μL of diluted NS3/NS4A-2 from Step b were added to wells A02-H12 of the plate in Step c.
Step e. Using the manual multichannel pipettor, and being careful not to introduce bubbles into the plate, 25 μL of the wells in drug dilution plate in Step a were transferred to corresponding wells in assay plate in Step d. The tips on the multichannel pipettor were changed for each row of compounds transferred.
Step f Using the manual multichannel pipettor, and being careful not to introduce bubbles into the plate, the contentes of the wells from the assay plate in Step e were mixed by aspirating and dispensing 35 μL of the 75 μL in each well five times. The tips on multichannel pipettor were changed for each row of wells mixed.
Step g. The plate was covered with a polystyrene plate lid, and the plate from Step f containing NS3 protease and sample compounds was pre-incubated 10 minutes at room temperature.
While plate from Step g is pre-incubating, the RETS1 substrate was diluted in a 15 mL polypropylene centrifuge tube. The RETS1 substrate was diluted to 8 μM (1:80.75 of 646 μM stock—65 μL 646 μM stock+5184 μL assay buffer).
After the plate in Step g was done pre-incubating, and using the manual multichannel, 25 μL of substrate were added to all wells on the plate. The contents of the wells of the plate were quickly mixed, as in Step f, mixing 65 μL of the 100 μL in the wells.
The plate was read in kinetic mode on the Molecular Devices SpectraMax Gemini XS plate reader. Reader settings: Read time: 30 minutes, Interval: 36 seconds, Reads: 51, Excitation λ: 335 nm, Emission λ: 495 nm, cutoff: 475 nm, Automix: off, Calibrate: once, PMT: high, Reads/well: 6, Vmax pts: 21 or 28/51 depending on length of linearity of reaction
IC50s are determined using a four parameter curve fit equation, and converted to Ki's using the following Km's: […]
Full-length E. coli NS3−2.03 μM
Full-length BV NS3−1.74 μM
where Ki=IC50/(1+[S]/Km))

[2] = system: HCV sub-genomic replicon, GS4.3 (HuH-7 hepatoma cells); assay: Quantitation by ELISA of NPTII in the HCV sub-genomic replicon, GS4.3; type: cell-based; settings: Hepatitis C virus, GS4.3 replicon cells, 72 h incubation
Text: Quantitation by ELISA of the Selectable Marker Protein, Neomycin Phosphotransferase II (NPTII) in the HCV Sub-Genomic Replicon, GS4.3
The HCV sub-genomic replicon (1377/NS3-3′, accession No. AJ242652), stably maintained in HuH-7 hepatoma cells, was created by Lohmann et al. Science 285: 110-113 (1999). The replicon-containing cell culture, designated GS4.3, was obtained from Dr. Christoph Seeger of the Institute for Cancer Research, Fox Chase Cancer Center, Philadelphia, Pa.
GS4.3 cells were maintained at 37° C., 5% CO2, in DMEM (Gibco 11965-092) supplemented with L-glutamine 200 mM (100×) (Gibco25030-081), non-essential amino acids (NEAA)(Biowhittaker 13-114E), heat-inactivated (HI) Fetal Bovine Serum(FBS)(Hyclone SH3007.03) and 750 μg/mL geneticin (G418)(Gibco 10131-035). Cells were sub-divided 1:3 or 4 every 2-3 days.
24 h prior to the assay, GS4.3 cells were collected, counted, and plated in 96-well plates (Costar 3585) at 7500 cells/well in […] standard maintenance medium (above) and incubated in the conditions above. To initiate the assay, culture medium was removed, cells were washed once with PBS (Gibco 10010-023) and 90 μl Assay Medium (DMEM, L-glutamine, NEAA, 10% HI FBS, no G418) was added. Inhibitors were made as a 10× stock in Assay Medium, (3-fold dilutions from 10 μM to […] final concentration, final DMSO concentration 1%), […] were added to duplicate wells, plates were rocked to mix, and incubated as above for 72 h.
An NPTII Elisa kit was obtained from AGDIA, Inc. (Compound direct ELISA test system for Neomycin Phosphotransferase II, PSP 73000/4800). Manufacturer's instructions were followed, with some modifications. 10×PEB-1 lysis buffer was made up to include 500 μM PMSF (Sigma P7626, 50 mM stock in isopropanol). After 72 h incubation, cells were washed once with PBS and […] PEB-1 with PMSF was added per well. Plates were agitated vigorously for 15 minutes, room temperature, then frozen at −70° C. Plates were thawed, lysates were mixed thoroughly, and 100 μl were applied to an NPTII Elisa plate. A standard curve was made. Lysate from DMSO-treated control cells was pooled, serially diluted with PEB-1 with PMSF, and applied to duplicate wells of the ELISA plate, in a range of initial lysate amount of 150 μL-2.5 μL. In addition, 100 μL buffer alone was applied in duplicate as a blank. Plates were sealed and gently agitated at room temperature for 2 h. Following capture incubation, the plates were washed 5×300 μL with PBS-T (0.5% Tween-20, PBS-T was supplied in the ELISA kit). For detection, a 1× dilution of enzyme conjugate diluent MRS-2 (5×) was made in PBS-T, into which 1:100 dilutions of enzyme conjugates A and B were added, as per instructions. Plates were resealed, and incubated with agitation, covered, room temperature, for 2 h. The washing was then repeated and 100 μL, of room temperature TMB substrate was added. After approximately 30 minutes incubation (room temperature, agitation, covered), the reaction was stopped with 50 μL, 3M sulfuric acid. Plates were read at 450 nm on a Molecular Devices Versamax plate reader.
Inhibitor effect was expressed as a percentage of DMSO-treated control signal, and inhibition curves were calculated using a 4-parameter equation: y=A+((B−A)/(1+((C/x)̂D))), where C is half-maximal activity or EC50.

T1 sequence (Q9WMX2 1027-1657): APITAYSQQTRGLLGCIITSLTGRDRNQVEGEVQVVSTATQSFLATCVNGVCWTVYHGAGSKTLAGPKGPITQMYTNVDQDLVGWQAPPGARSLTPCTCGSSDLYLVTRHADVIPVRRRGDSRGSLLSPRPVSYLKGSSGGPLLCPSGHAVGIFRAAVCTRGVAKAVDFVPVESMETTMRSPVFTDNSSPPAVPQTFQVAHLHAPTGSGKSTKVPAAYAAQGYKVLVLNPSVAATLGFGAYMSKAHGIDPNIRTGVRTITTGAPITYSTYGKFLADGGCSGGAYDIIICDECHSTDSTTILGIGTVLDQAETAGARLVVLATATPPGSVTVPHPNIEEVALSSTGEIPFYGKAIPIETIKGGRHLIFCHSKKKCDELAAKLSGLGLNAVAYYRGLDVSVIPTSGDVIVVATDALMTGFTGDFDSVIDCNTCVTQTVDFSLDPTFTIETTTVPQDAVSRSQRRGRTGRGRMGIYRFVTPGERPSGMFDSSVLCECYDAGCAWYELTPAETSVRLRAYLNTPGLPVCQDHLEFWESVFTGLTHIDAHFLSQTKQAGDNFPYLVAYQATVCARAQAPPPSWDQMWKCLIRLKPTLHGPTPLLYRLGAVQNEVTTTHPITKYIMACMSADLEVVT
T1 sequence (Q9WMX2 1658-1711): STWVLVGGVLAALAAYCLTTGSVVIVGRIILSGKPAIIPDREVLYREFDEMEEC

Compound | IC50 [1] [nM] | EC50 [2] [nM]
CC(C)(C)[C@H](Nc1cccc(C(F)(F)F)c1)C(=O)N1C[C@H](OC(=O)N2Cc3cccc(Cl)c3C2)C[C@H]1C(=O)N[C@]1(C(=O)NS(=O)(=O)C2(C)CC2)C[C@H]1C1CC1 [Compound 303] | < 100 | < 100
CC[C@@H]1C[C@]1(NC(=O)[C@@H]1C[C@@H](Oc2cc(-c3nc(C(C)C)cs3)nc3c(C)c(OC)ccc23)CN1C(=O)[C@@H](Nc1ccccc1[N+](=O)[O-])C(C)(C)C)C(=O)NS(=O)(=O)C1CC1 [Compound 350] | > 1000 | < 100
C=C[C@@H]1C[C@]1(NC(=O)[C@@H]1C[C@@H](Oc2cc(-c3nc(C(C)C)cs3)nc3c(C)c(OC)ccc23)CN1C(=O)[C@@H](Nc1cc(F)cc(OC(F)(F)F)c1)C(C)(C)C)C(=O)NS(=O)(=O)C1(C)CC1 [Compound 404] | < 100 | < 100
CCOC(=O)c1cccc(N[C@H](C(=O)N2C[C@H](OC(=O)N3Cc4cccc(F)c4C3)C[C@H]2C(=O)N[C@]2(C(=O)NS(=O)(=O)C3CC3)C[C@H]2CC)C(C)(C)C)c1 [Compound 4] | < 100 | 100 to 1000
CC[C@@H]1CC1(NC(=O)[C@@H]1C[C@@H](OC(=O)N2Cc3cccc(Cl)c3C2)CN1C(=O)[C@@H](Nc1cccnc1)C(C)(C)C)C(=O)NS(=O)(=O)C1CC1 (stereo partly shown) [Compound 1] | < 100 | < 100
CC[C@@H]1C[C@]1(NC(=O)[C@@H]1C[C@@H](OC(=O)N2Cc3cccc(F)c3C2)CN1C(=O)[C@@H](Nc1cccc(C(=O)NCCN(C)C)c1)C(C)(C)C)C(=O)NS(=O)(=O)C1CC1 [Compound 13] | < 100 | > 1000
C=C[C@@H]1C[C@]1(NC(=O)[C@@H]1C[C@@H](Oc2cc(-c3nc(C(C)C)cs3)nc3c(C)c(OC)ccc23)CN1C(=O)[C@@H](Nc1cccc(C(F)(F)F)c1)C(C)(C)C)C(=O)NS(=O)(=O)C1(C)CC1 [Compound 302] | < 100 | < 100
C=C[C@@H]1C[C@]1(NC(=O)[C@@H]1C[C@@H](Oc2nccc3ccccc23)CN1C(=O)[C@@H](Nc1cc(F)cc(C(F)(F)F)c1)C(C)(C)C)C(=O)NS(=O)(=O)C1(C)CC1 [Compound 287] | < 100 | < 100
C=C[C@@H]1C[C@]1(NC(=O)[C@H]1Cc2cc(Oc3cccc(Cl)c3)ccc2CN1C(=O)[C@@H](Nc1cccc(C(F)(F)F)c1)C(C)(C)C)C(=O)NS(=O)(=O)C1CC1 [Compound 24] | < 100 | > 1000
CC[C@@H]1C[C@]1(NC(=O)[C@@H]1C[C@@H](OC(=O)N2Cc3cccc(F)c3C2)CN1C(=O)[C@@H](Nc1cccc(S(=O)(=O)N2CCOCC2)c1)C(C)(C)C)C(=O)NS(=O)(=O)C1CC1 [Compound 10] | < 100 | > 1000
CC[C@@H]1C[C@]1(NC(=O)[C@@H]1C[C@@H](OC(=O)N2Cc3cccc(F)c3C2)CN1C(=O)[C@@H](Nc1ccc(S(=O)(=O)N2CCNCC2)cc1)C(C)(C)C)C(=O)NS(=O)(=O)C1CC1 [Compound 17] | < 100 | > 1000
CC[C@@H]1C[C@]1(NC(=O)[C@@H]1C[C@@H](Oc2cc(-c3nc(C(C)C)cs3)nc3c(C)c(OC)ccc23)CN1C(=O)[C@@H](Nc1ccc(F)c(C(F)(F)F)c1)C(C)(C)C)C(=O)NS(=O)(=O)C1CC1 [Compound 308] | < 100 | < 100
CC[C@@H]1C[C@]1(NC(=O)[C@@H]1CC(Oc2cc(-c3nc(C(C)C)cs3)nc3c(C)c(OC)ccc23)CN1C(=O)[C@@H](Nc1cccc(C(F)(F)F)c1)C(C)(C)C)C(=O)NS(=O)(=O)C1(C)CC1 (stereo partly shown) [Compound 336] | < 100 | < 100
CC[C@@H]1C[C@]1(NC(=O)[C@@H]1C[C@@H](OC(=O)N2Cc3ccc(OC)cc3C2)CN1C(=O)[C@@H](Nc1cc(F)cc(C(F)(F)F)c1)C(C)(C)C)C(=O)NS(=O)(=O)C1(C)CC1 [Compound 291] | < 100 | < 100
CC(C)(C)[C@H](Nc1ccc(F)c(C(F)(F)F)c1)C(=O)N1C[C@H](OC(=O)N2Cc3cccc(Cl)c3C2)C[C@H]1C(=O)N[C@]1(C(=O)NS(=O)(=O)C2(C)CC2)C[C@H]1C1CC1 [Compound 310] | < 100 | < 100
CC[C@@H]1C[C@]1(NC(=O)[C@@H]1C[C@@H](Oc2nc3ccccc3s2)CN1C(=O)[C@@H](Nc1cccc(C(F)(F)F)c1)C(C)(C)C)C(=O)NS(=O)(=O)C1(C)CC1 [Compound 231] | < 100 | < 100
CC[C@@H]1C[C@]1(NC(=O)[C@@H]1C[C@@H](Oc2cc(-c3nc(C(C)C)cs3)nc3c(C)c(OC)ccc23)CN1C(=O)[C@@H](Nc1cccc(C(F)(F)F)c1)C(C)(C)C)C(=O)NS(=O)(=O)N(C)C [Compound 297] | < 100 | < 100
